These are literature values, as cited in patent US5866682A (priority 1997, dated 1999).

The test system of this series is α3β2 and α3β4 receptors.

Regarding α-conotoxin MII, the “binding sites and toxin molecules required to block function” value is “has two binding sites on α3β2 and α3β4 receptors expressed in Xenopus oocytes and only one toxin molecule is required to block function”; the “block of native nAChRs” value was “blocks native α3β2-containing nAChRs and α3β4 conataining nAChRs”; the “discrimination between the α3β2 and α3β4 interface” value is recorded as “four orders-of-magnitude”.
